Results: PubChem BioAssay AID1918944 (Molecular Pharmacology Branch, DTP, NCI, 2023)

Test system: 786-0 complex spheroid viability
Assay: Anticancer human tumor 786-0 cell line growth inhibition;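 note: spheroids exposed to agents for seven days before readout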
Conditions: for IC50: curve of first compound; for viability, T/C: stronger effect = lower value
In short: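 Drug combinations with the LSD1 inhibitor iadademstat tested on tumor cells co-cultured as spheroids with endothelial cells and mesenchymal stem cells. Concentrations descended in half-log increments from clinical Cmax or 10 microM.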

## O=C(C=Cc1cccc(S(=O)(=O)Nc2ccccc2)c1)NO + NC1CC1c1ccc(-c2cccc(O)c2)cc1
Second compound 0.1 µM
  IC50: 1300 nM
Second compound 0.316 µM
  IC50: 1300 nM
Second compound 1 µM
  IC50: 1250 nM
Second compound 3.16 µM
  IC50: 1110 nM
Second compound 10 µM
  IC50: 840 nM
Second compound 0.1 µM, first compound 0.00949 µM
  viability, T/C: 111%
Second compound 0.1 µM, first compound 0.03 µM
  viability, T/C: 107%
Second compound 0.1 µM, first compound 0.0949 µM
  viability, T/C: 111%
Second compound 0.1 µM, first compound 0.3 µM
  viability, T/C: 97%
Second compound 0.1 µM, first compound 0.949 µM
  viability, T/C: 66.1%
Second compound 0.1 µM, first compound 3 µM
  viability, T/C: 8.04%
Second compound 0.316 µM, first compound 0.00949 µM
  viability, T/C: 107%
Second compound 0.316 µM, first compound 0.03 µM
  viability, T/C: 107%
Second compound 0.316 µM, first compound 0.0949 µM
  viability, T/C: 109%
Second compound 0.316 µM, first compound 0.3 µM
  viability, T/C: 96.1%
Second compound 0.316 µM, first compound 0.949 µM
  viability, T/C: 66.3%
Second compound 0.316 µM, first compound 3 µM
  viability, T/C: 7.18%
Second compound 1 µM, first compound 0.00949 µM
  viability, T/C: 106%
Second compound 1 µM, first compound 0.03 µM
  viability, T/C: 110%
Second compound 1 µM, first compound 0.0949 µM
  viability, T/C: 110%
Second compound 1 µM, first compound 0.3 µM
  viability, T/C: 92.5%
Second compound 1 µM, first compound 0.949 µM
  viability, T/C: 63.9%
Second compound 1 µM, first compound 3 µM
  viability, T/C: 7.4%
Second compound 3.16 µM, first compound 0.00949 µM
  viability, T/C: 98.5%
Second compound 3.16 µM, first compound 0.03 µM
  viability, T/C: 99.2%
Second compound 3.16 µM, first compound 0.0949 µM
  viability, T/C: 110%
Second compound 3.16 µM, first compound 0.3 µM
  viability, T/C: 90.7%
Second compound 3.16 µM, first compound 0.949 µM
  viability, T/C: 57.4%
Second compound 3.16 µM, first compound 3 µM
  viability, T/C: 4.98%
Second compound 10 µM, first compound 0.00949 µM
  viability, T/C: 92.5%
Second compound 10 µM, first compound 0.03 µM
  viability, T/C: 96.9%
Second compound 10 µM, first compound 0.0949 µM
  viability, T/C: 92.2%
Second compound 10 µM, first compound 0.3 µM
  viability, T/C: 87.2%
Second compound 10 µM, first compound 0.949 µM
  viability, T/C: 45.6%
Second compound 10 µM, first compound 3 µM
  viability, T/C: 2.44%
